Our source for the IC50 values is patent US12679848B2, “Plasma kallikrein inhibitors” (Merck Sharp & Dohme LLC, priority 2020, dated 2026).

Assay [1] addresses human factor XIa (Homo sapiens, UniProt P03951). Description: Factor XIa Assay. It is filed as biochemical. Particulars: human factor XIa 0.04 nM, substrate GPR-AFC, 30 min pre-incubation, 25° C., pH 7.4; read-out: FXIa IC50. The protocol:
(§1) The effectiveness of a compound of the present invention as an inhibitor of Coagulation factor XIa can be determined using a relevant purified serine protease, and an appropriate synthetic substrate. The rate of hydrolysis of the chromogenic or fluorogenic substrate by the relevant serine protease was measured both in the absence and presence of compounds of the present invention. Assays were conducted at rt or at 37° C. […] A decrease in the rate of fluorescence change in the presence of inhibitor is indicative of enzyme inhibition. Such methods are known to one skilled in the art. The results of this assay are expressed as the half-maximal inhibitory concentrations (IC50), or the inhibitory constant, Ki.
Compounds were pre-incubated for 30 min at 25° C. with human (0.04 nM) factor XIa in 50 mM HEPES buffer with 150 mM sodium chloride, 5 mM calcium chloride, 0.1% PEG 8000, pH 7.4. factor XIa enzymatic activity was determined by addition of the substrate glycine-proline-arginine-7-amido-4-trifluoromethylcoumarin (GPR-AFC) and measurement of the fluorescence at 400/505 nm after a 60 min incubation at 25° C. The % inhibition for each data point was calculated from the data and analyzed using the log (inhibitor) vs. response four parameters equation to determine the half-maximal inhibitory concentrations (IC50). The IC50 were converted to equilibrium inhibitory constants (Ki) using the Cheng-Prusoff equation.

For assay [2], the target named is T1, Human plasma kallikrein (Homo sapiens, UniProt P03952).
T1 construct: yields a heavy chain (371 amino acids) and a light chain (248 amino acids); The active site of plasma kallikrein is contained in the light chain; purchased Enzyme Research Laboratories
Description: Plasma Kallikrein Assay. It is filed as biochemical. Particulars: purified Human plasma kallikrein 0.5 nM, substrate Acetyl-K-P-R-AFC, HEPES pH 7.4; read-out: PKal IC50. The protocol:
as §1, with “plasma kallikrein” for “Coagulation factor XIa”
Plasma kallikrein determinations were made in 50 mM HEPES buffer at pH 7.4 containing 150 mM NaCl, 5 mM CaCl2), and 0.1% PEG 8000 (polyethylene glycol; Fisher Scientific). Determinations were made using purified Human plasma kallikrein at a final concentration of 0.5 nM (Enzyme Research Laboratories) and the synthetic substrate, Acetyl-K—P—R-AFC (Sigma #C6608) at a concentration of […].
Times required to achieve equilibration between enzyme and inhibitor were determined in control experiments. […] IC50 was determined by inflection point from a four parameter logistic curve fit. Ki was calculated using the Cheng Prusoff equation, Ki=IC50/[…](1+([S]/Km)).

A value given as a limit tells only on which side of the number the result lay.

A word on the IC50: it is the concentration needed to halve the response being measured.

human factor XIa, sequence (P03951 388-625 limits assumed): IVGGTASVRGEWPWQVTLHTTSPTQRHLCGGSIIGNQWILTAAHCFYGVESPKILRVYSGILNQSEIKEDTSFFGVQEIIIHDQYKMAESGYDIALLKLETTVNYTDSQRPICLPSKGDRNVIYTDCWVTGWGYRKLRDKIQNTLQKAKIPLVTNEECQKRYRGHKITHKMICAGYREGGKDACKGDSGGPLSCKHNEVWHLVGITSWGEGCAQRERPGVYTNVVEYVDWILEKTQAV
human factor XIa, sequence (P03951 19-387 partner limits assumed): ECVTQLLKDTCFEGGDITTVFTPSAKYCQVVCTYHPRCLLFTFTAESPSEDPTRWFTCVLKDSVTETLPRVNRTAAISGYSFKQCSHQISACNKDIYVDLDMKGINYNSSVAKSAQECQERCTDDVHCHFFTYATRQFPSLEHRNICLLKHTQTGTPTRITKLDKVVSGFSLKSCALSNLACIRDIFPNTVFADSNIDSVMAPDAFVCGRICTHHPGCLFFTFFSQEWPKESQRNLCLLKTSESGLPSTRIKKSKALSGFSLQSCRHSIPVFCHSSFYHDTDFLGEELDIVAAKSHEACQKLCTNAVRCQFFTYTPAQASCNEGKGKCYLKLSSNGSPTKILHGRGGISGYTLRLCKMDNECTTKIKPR
T1 sequence (P03952 391-638 limits assumed): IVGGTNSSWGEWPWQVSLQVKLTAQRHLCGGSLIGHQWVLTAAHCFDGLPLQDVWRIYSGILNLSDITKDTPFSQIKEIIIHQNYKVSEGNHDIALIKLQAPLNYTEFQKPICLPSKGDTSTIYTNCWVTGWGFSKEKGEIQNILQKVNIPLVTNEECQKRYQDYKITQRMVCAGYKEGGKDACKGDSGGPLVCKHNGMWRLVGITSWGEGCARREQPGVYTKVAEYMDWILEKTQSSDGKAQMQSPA
T1 sequence (P03952 20-390 partner limits assumed): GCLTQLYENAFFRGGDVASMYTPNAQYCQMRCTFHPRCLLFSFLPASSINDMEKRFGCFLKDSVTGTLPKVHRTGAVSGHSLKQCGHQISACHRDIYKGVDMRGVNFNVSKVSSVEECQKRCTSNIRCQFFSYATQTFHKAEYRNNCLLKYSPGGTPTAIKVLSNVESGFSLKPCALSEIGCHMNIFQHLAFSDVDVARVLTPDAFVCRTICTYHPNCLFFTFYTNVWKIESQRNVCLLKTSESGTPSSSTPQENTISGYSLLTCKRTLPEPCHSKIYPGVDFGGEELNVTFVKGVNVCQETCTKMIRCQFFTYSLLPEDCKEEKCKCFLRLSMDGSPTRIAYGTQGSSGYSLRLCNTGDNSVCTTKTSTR

Take `CC(=O)Nc1cccc(-n2ncc(C(=O)N3CCC[C@@]4(C3)OC(=O)Nc3ccc(Cl)c(F)c34)c2N)c1` [Example 71, (R)-N-(3-(5-Amino-4-(6-chloro-5-fluoro-2-oxo-1,2-dihydrospiro[benzo[d][1,3]oxazine-4,3'-piperidine]-1'-carbonyl)-1H-pyrazol-1-yl)phenyl)acetamide]: the results for the concentration for half-maximal inhibition (IC50) in assay [1] and in assay [2] were 4050 nM and 36.6 nM, respectively.

Regarding `Nc1c(C(=O)N2CCC[C@@]3(C2)OC(=O)Nc2ccc(Cl)c(F)c23)cnn1Cc1cccc(C(F)(F)F)c1` [Example 5, (R)-1'-(5-Amino-1-(3-(trifluoromethyl)benzy1)-1H-pyrazole-4-carbonyl)-6-chloro-5-fluorospiro[benzo[d][1,3]oxazine-4,3'-piperidin]-2(1H)-one], the IC50 turned out to be 726 nM in assay [1] and 1.7 nM in assay [2].

As for `CC1(c2ccccc2-n2ncc(C(=O)N3CCC[C@@]4(C3)OC(=O)Nc3ccc(Cl)c(F)c34)c2N)CC1` [Example 98, (R)-1'-(5-Amino-1-(2-(1-methylcyclopropyl)phenyl)-1H-pyrazole-4-carbonyl)-6-chloro-5-fluorospiro[benzo[d][1,3]oxazine-4,3'-piperidin]-2(1H)-one], the IC50 is 219 nM in assay [1] and 8.4 nM in assay [2].

As to `Nc1c(C(=O)N2CCC[C@@]3(C2)OC(=O)Nc2ccc(Cl)c(F)c23)cnn1-c1c(Cl)cncc1Cl` [Example 102, (R)-1'-(5-Amino-1-(3,5-dichloropyridin-4-y1)-1H-pyrazole-4-carbonyl)-6-chloro-5-fluorospiro[benzo[d][1,3]oxazine-4,3'-piperidin]-2(1H)-one], the values for the IC50 in assay [1] and in assay [2] were 12 nM and 3.8 nM, respectively.

On to `Nc1c(C(=O)N2CCC[C@@]3(C2)OC(=O)Nc2ccc(Cl)c(F)c23)cnn1C1(C(F)(F)F)CC[C@@H]2C[C@@H]21` (single isomer, unassigned) [Example 56, (R)-1'-(5-Amino-1-((1S,2S or R,5R)-2-(trifluoromethyl)bicyclo[3.1.0]hexan-2-y1)-1H-pyrazole-4-carbonyl)-6-chloro-5-fluorospiro[benzo[d][1,3]oxazine-4,3'-piperidin]-2(1H)-one], for which the IC50 in assay [1] was 932 nM; in assay [2] it was 2.9 nM.

Consider `Nc1c(C(=O)N2CCC[C@@]3(C2)OC(=O)Nc2ccc(Cl)c(F)c23)cnn1C1CCCC1` [Example 22, (R)-1'-(5-Amino-1-cyclopenty1-1H-pyrazole-4-carbonyl)-6-chloro-5-fluorospiro[benzo[d][1,3]oxazine-4,3'-piperidin]-2(1H)-one], for which the IC50 was found to be 1120 nM in assay [1] and 15.3 nM in assay [2].

Regarding `Nc1c(C(=O)N2CCC[C@@]3(C2)OC(=O)Nc2ccc(Cl)c(F)c23)cnn1CCc1ccccc1` [Example 16, (R)-1'-(5-Amino-1-phenethyl-1H-pyrazole-4-carbonyl)-6-chloro-5-fluorospiro[benzo[d][1,3]oxazine-4,3'-piperidin]-2(1H)-one], the IC50 worked out at 441 nM in assay [1] and 4.1 nM in assay [2].

Regarding `Cn1ncc(C(=O)N2CCC[C@@]3(C2)OC(=O)Nc2ccc(Cl)c(F)c23)c1N` [Example 109, (R)-1'-(5-Amino-1-methyl-1H-pyrazole-4-carbonyl)-6-chloro-5-fluorospiro[benzo[d][1,3]oxazine-4,3'-piperidin]-2(1H)-one], the IC50 in assay [1] is above 10000 nM; in assay [2], 338 nM.

Regarding `COc1ccccc1Cn1ncc(C(=O)N2CCC[C@@]3(C2)OC(=O)Nc2ccc(Cl)c(F)c23)c1N` [Example 40, (R)-1'-(5-Amino-1-(2-methoxybenzyl)-1H-pyrazole-4-carbonyl)-6-chloro-5-fluorospiro[benzo[d][1,3]oxazine-4,3'-piperidin]-2(1H)-one], the values for the concentration for half-maximal inhibition (IC50) in assay [1] and in assay [2] were 249 nM and 2.3 nM, respectively.

On to `CC(=O)Nc1ccc(-n2ncc(C(=O)N3CCC[C@@]4(C3)OC(=O)Nc3ccc(Cl)c(F)c34)c2N)cc1` [Example 67, (R)-N-(4-(5-Amino-4-(6-chloro-5-fluoro-2-oxo-1,2-dihydrospiro[benzo[d][1,3]oxazine-4,3'-piperidine]-1'-carbonyl)-1H-pyrazol-1-yl)phenyl)acetamide], for which the IC50 in assay [1] turned out to be 7320 nM; in assay [2], 46.2 nM.

Consider `Nc1c(C(=O)N2CCC[C@@]3(C2)OC(=O)Nc2ccc(Cl)c(F)c23)cnn1-c1ccccc1Br` [Example 83, (R)-1'-(5-Amino-1-(2-bromophenyl)-1H-pyrazole-4-carbonyl)-6-chloro-5-fluorospiro[benzo[d][1,3]oxazine-4,3'-piperidin]-2(1H)-one], for which the concentration for half-maximal inhibition (IC50) in assay [1] came to 862 nM; in assay [2], 35.5 nM.

As to `Nc1c(C(=O)N2CCC[C@@]3(C2)OC(=O)Nc2ccc(Cl)c(F)c23)cnn1Cc1cccnc1` [Example 55, (R)-1'-(5-Amino-1-(pyridin-3-ylmethyl)-1H-pyrazole-4-carbonyl)-6-chloro-5-fluorospiro[benzo[d][1,3]oxazine-4,3'-piperidin]-2(1H)-one], the 50% inhibitory concentration (IC50) in assay [1] amounted to 418 nM; in assay [2], 2 nM.

Consider `Nc1c(C(=O)N2CCC[C@@]3(C2)OC(=O)Nc2ccc(Cl)c(F)c23)cnn1-c1ccnc2ccc(F)cc12` [Example 60, (R)-1'-(5-Amino-1-(6-fluoroquinolin-4-y1)-1H-pyrazole-4-carbonyl)-6-chloro-5-fluorospiro[benzo[d][1,3]oxazine-4,3'-piperidin]-2(1H)-one], for which the figures for the concentration for half-maximal inhibition (IC50) in assay [1] and in assay [2] were 599 nM and 8 nM, respectively.

In the case of `Nc1c(C(=O)N2CCC[C@@]3(C2)OC(=O)Nc2ccc(Cl)c(F)c23)cnn1C(c1ccccc1)C(F)(F)F` (single isomer, unassigned) [Example 122, (R)-1'-(5-Amino-1-((R or S)-2,2,2-trifluoro-1-phenylethyl)-1H-pyrazole-4-carbonyl)-6-chloro-5-fluorospiro[benzo[d][1,3]oxazine-4,3'-piperidin]-2(1H)-one], the IC50 in assay [1] is 95 nM; in assay [2], 1 nM.

Regarding `CC(C)Cn1ncc(C(=O)N2CCC[C@@]3(C2)OC(=O)Nc2ccc(Cl)c(F)c23)c1N` [Example 17, (R)-1'-(5-Amino-1-isobutyl-1H-pyrazole-4-carbonyl)-6-chloro-5-fluorospiro[benzo[d][1,3]oxazine-4,3'-piperidin]-2(1H)-one], the half-inhibitory concentration (IC50) in assay [1] came to 328 nM; in assay [2], 8 nM.

For `Cc1ccc(C)c(-n2ncc(C(=O)N3CCC[C@@]4(C3)OC(=O)Nc3ccc(Cl)c(F)c34)c2N)c1` [Example 87, (R)-1'-(5-Amino-1-(2,5-dimethylphenyl)-1H-pyrazole-4-carbonyl)-6-chloro-5-fluorospiro[benzo[d][1,3]oxazine-4,3'-piperidin]-2(1H)-one], the half-inhibitory concentration (IC50) in assay [1] was 1170 nM; in assay [2] it was 26.4 nM.

`Cc1ncccc1-n1ncc(C(=O)N2CCC[C@@]3(C2)OC(=O)Nc2ccc(Cl)c(F)c23)c1N` [Example 61, (R)-1'-(5-Amino-1-(2-methylpyridin-3-y1)-1H-pyrazole-4-carbonyl)-6-chloro-5-fluorospiro[benzo[d][1,3]oxazine-4,3'-piperidin]-2(1H)-one]: the figures for the IC50 in assay [1] and in assay [2] were 1750 nM and 42.5 nM, respectively.

For `Nc1c(C(=O)N2CCC[C@@]3(C2)OC(=O)Nc2ccc(Cl)c(F)c23)cnn1-c1ccc(Cl)cc1Cl` [Example 65, (R)-1'-(5-Amino-1-(2,4-dichlorophenyl)-1H-pyrazole-4-carbonyl)-6-chloro-5-fluorospiro[benzo[d][1,3]oxazine-4,3'-piperidin]-2(1H)-one], the values for the half-inhibitory concentration (IC50) in assay [1] and in assay [2] were 160 nM and 37.5 nM, respectively.

As for `Nc1c(C(=O)N2CCC[C@@]3(C2)OC(=O)Nc2ccc(Cl)c(F)c23)cnn1-c1ccc(C(=O)O)cc1` [Example 74, (R)-4-(5-Amino-4-(6-chloro-5-fluoro-2-oxo-1,2-dihydrospiro[benzo[d][1,3]oxazine-4,3'-piperidine]-l'-carbonyl)-1H-pyrazol-1-yl)benzoic acid], the IC50 in assay [1] turned out to be 378 nM; in assay [2], 8.4 nM.

In the case of `Nc1c(C(=O)N2CCC[C@@]3(C2)OC(=O)Nc2ccc(Cl)c(F)c23)cnn1C1CCOCC1` [Example 18, (R)-1'-(5-Amino-1-(tetrahydro-2H-pyran-4-y1)-1H-pyrazole-4-carbonyl)-6-chloro-5-fluorospiro[benzo[d][1,3]oxazine-4,3'-piperidin]-2(1H)-one], the half-inhibitory concentration (IC50) is 1650 nM in assay [1] and 39.1 nM in assay [2].
